From PubChem BioAssay (NCI)
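Five concentrations, 48 hours, 96-well plates. GI50 is the concentration that inhibits growth by half. Definition used: TGI = concentration required for complete inhibition of growth.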

Assays:
Test in all cases: growth of human tumour cells (NCI), 48 h
HCC-2998 colon = tested on: HCC-2998 colon
RPMI-8226 leukemia = tested on: RPMI-8226 leukemia
UACC-257 melanoma = tested on: UACC-257 melanoma
RXF 393 renal = tested on: RXF 393 renal
CCRF-CEM leukemia = tested on: CCRF-CEM leukemia
NCI-H226 lung = tested on: NCI-H226 lung
SK-MEL-5 melanoma = tested on: SK-MEL-5 melanoma
HS 578T breast = tested on: HS 578T breast
LOX IMVI melanoma = tested on: LOX IMVI melanoma
MDA-MB-468 breast = tested on: MDA-MB-468 breast
COLO 205 colon = tested on: COLO 205 colon
A498 renal = tested on: A498 renal
U251 CNS = tested on: U251 CNS
IGROV1 ovarian = tested on: IGROV1 ovarian
SF-295 CNS = tested on: SF-295 CNS
HCT-15 colon = tested on: HCT-15 colon
NCI-H522 lung = tested on: NCI-H522 lung
SF-539 CNS = tested on: SF-539 CNS
SK-MEL-28 melanoma = tested on: SK-MEL-28 melanoma
UACC-62 melanoma = tested on: UACC-62 melanoma
NCI/ADR-RES ovarian = tested on: NCI/ADR-RES ovarian
EKVX NSCLC = tested on: EKVX NSCLC
OVCAR-4 ovarian = tested on: OVCAR-4 ovarian
T-47D breast = tested on: T-47D breast
SF-268 CNS = tested on: SF-268 CNS
OVCAR-8 ovarian = tested on: OVCAR-8 ovarian
SK-OV-3 ovarian = tested on: SK-OV-3 ovarian
M14 melanoma = tested on: M14 melanoma
NCI-H460 lung = tested on: NCI-H460 lung
786-0 renal = tested on: 786-0 renal
HT29 colon = tested on: HT29 colon
BT-549 breast = tested on: BT-549 breast
HCT-116 colon = tested on: HCT-116 colon
ACHN renal = tested on: ACHN renal
SNB-75 CNS = tested on: SNB-75 CNS
DU-145 prostate = tested on: DU-145 prostate
A549 NSCLC = tested on: A549 NSCLC
UO-31 renal = tested on: UO-31 renal
PC-3 prostate = tested on: PC-3 prostate
MCF7 breast = tested on: MCF7 breast
OVCAR-5 ovarian = tested on: OVCAR-5 ovarian
NCI-H23 lung = tested on: NCI-H23 lung
HOP-62 NSCLC = tested on: HOP-62 NSCLC
MDA-MB-231 breast = tested on: MDA-MB-231 breast
TK-10 renal = tested on: TK-10 renal
HL-60(TB) leukemia = tested on: HL-60(TB) leukemia
HOP-92 NSCLC = tested on: HOP-92 NSCLC
MALME-3M melanoma = tested on: MALME-3M melanoma
KM12 colon = tested on: KM12 colon
CAKI-1 renal = tested on: CAKI-1 renal
SK-MEL-2 melanoma = tested on: SK-MEL-2 melanoma
MOLT-4 leukemia = tested on: MOLT-4 leukemia
MDA-MB-435 = tested on: MDA-MB-435
SNB-19 CNS = tested on: SNB-19 CNS
OVCAR-3 ovarian = tested on: OVCAR-3 ovarian
SW-620 colon = tested on: SW-620 colon
SN12C renal = tested on: SN12C renal
SR leukemia = tested on: SR leukemia

O=C(NN1C(=O)/C(=C/C=C/c2ccc([N+](=O)[O-])o2)SC1=S)c1ccc([N+](=O)[O-])cc1
GI50 (HCC-2998 colon): 389 nM | TGI (HCC-2998 colon): 1290 nM | GI50 (RPMI-8226 leukemia): 344 nM | TGI (RPMI-8226 leukemia): 2110 nM | GI50 (UACC-257 melanoma): 1440 nM | TGI (UACC-257 melanoma): 3.21 µM | GI50 (RXF 393 renal): 521 nM | TGI (RXF 393 renal): 1860 nM | GI50 (CCRF-CEM leukemia): 262 nM | TGI (CCRF-CEM leukemia): 1050 nM | GI50 (NCI-H226 lung): 548 nM | TGI (NCI-H226 lung): 1620 nM | GI50 (SK-MEL-5 melanoma): 258 nM | TGI (SK-MEL-5 melanoma): 760 nM | GI50 (HS 578T breast): 1750 nM | TGI (HS 578T breast): 5.77 µM | GI50 (LOX IMVI melanoma): 213 nM | TGI (LOX IMVI melanoma): 499 nM | GI50 (MDA-MB-468 breast): 1310 nM | TGI (MDA-MB-468 breast): 2790 nM | GI50 (COLO 205 colon): 301 nM | TGI (COLO 205 colon): 826 nM | GI50 (A498 renal): 3.28 µM | TGI (A498 renal): 10.9 µM | GI50 (U251 CNS): 381 nM | TGI (U251 CNS): 1660 nM | GI50 (IGROV1 ovarian): 601 nM | TGI (IGROV1 ovarian): 1610 nM | GI50 (SF-295 CNS): 1700 nM | TGI (SF-295 CNS): 3.18 µM | GI50 (HCT-15 colon): 130 nM | TGI (HCT-15 colon): 315 nM | GI50 (NCI-H522 lung): 187 nM | TGI (NCI-H522 lung): 376 nM | GI50 (SF-539 CNS): 263 nM | TGI (SF-539 CNS): 745 nM | GI50 (SK-MEL-28 melanoma): 1100 nM | TGI (SK-MEL-28 melanoma): 2400 nM | GI50 (UACC-62 melanoma): 218 nM | TGI (UACC-62 melanoma): 607 nM | GI50 (NCI/ADR-RES ovarian): 765 nM | TGI (NCI/ADR-RES ovarian): 3.11 µM | GI50 (EKVX NSCLC): 639 nM | TGI (EKVX NSCLC): 1880 nM | GI50 (OVCAR-4 ovarian): 1450 nM | TGI (OVCAR-4 ovarian): 2900 nM | GI50 (T-47D breast): 1800 nM | TGI (T-47D breast): 4.4 µM | GI50 (SF-268 CNS): 1560 nM | TGI (SF-268 CNS): 4.45 µM | GI50 (OVCAR-8 ovarian): 266 nM | TGI (OVCAR-8 ovarian): 964 nM | GI50 (SK-OV-3 ovarian): 1910 nM | TGI (SK-OV-3 ovarian): 3.81 µM | GI50 (M14 melanoma): 189 nM | TGI (M14 melanoma): 396 nM | GI50 (NCI-H460 lung): 341 nM | TGI (NCI-H460 lung): 1240 nM | GI50 (786-0 renal): 247 nM | TGI (786-0 renal): 645 nM | GI50 (HT29 colon): 225 nM | TGI (HT29 colon): 513 nM | GI50 (BT-549 breast): 189 nM | TGI (BT-549 breast): 489 nM | GI50 (HCT-116 colon): 156 nM | TGI (HCT-116 colon): 332 nM | GI50 (ACHN renal): 1030 nM | TGI (ACHN renal): 2200 nM | GI50 (SNB-75 CNS): 1250 nM | TGI (SNB-75 CNS): 3.38 µM | GI50 (DU-145 prostate): 936 nM | TGI (DU-145 prostate): 2290 nM | GI50 (A549 NSCLC): 1860 nM | TGI (A549 NSCLC): 4.09 µM | GI50 (UO-31 renal): 1080 nM | TGI (UO-31 renal): 2290 nM | GI50 (PC-3 prostate): 1230 nM | TGI (PC-3 prostate): 3.2 µM | GI50 (MCF7 breast): 363 nM | TGI (MCF7 breast): 1690 nM | GI50 (OVCAR-5 ovarian): 1440 nM | TGI (OVCAR-5 ovarian): 2750 nM | GI50 (NCI-H23 lung): 289 nM | TGI (NCI-H23 lung): 916 nM | GI50 (HOP-62 NSCLC): 771 nM | TGI (HOP-62 NSCLC): 2130 nM | GI50 (MDA-MB-231 breast): 185 nM | TGI (MDA-MB-231 breast): 368 nM | GI50 (TK-10 renal): 1580 nM | TGI (TK-10 renal): 2970 nM | GI50 (HL-60(TB) leukemia): 1800 nM | TGI (HL-60(TB) leukemia): 6.81 µM | GI50 (HOP-92 NSCLC): 310 nM | TGI (HOP-92 NSCLC): 1210 nM | GI50 (MALME-3M melanoma): 181 nM | TGI (MALME-3M melanoma): 377 nM | GI50 (KM12 colon): 925 nM | TGI (KM12 colon): 2420 nM | GI50 (CAKI-1 renal): 704 nM | TGI (CAKI-1 renal): 1940 nM | GI50 (SK-MEL-2 melanoma): 239 nM | TGI (SK-MEL-2 melanoma): 785 nM | GI50 (MOLT-4 leukemia): 322 nM | TGI (MOLT-4 leukemia): 1940 nM | GI50 (MDA-MB-435): 243 nM | TGI (MDA-MB-435): 633 nM | GI50 (SNB-19 CNS): 1460 nM | TGI (SNB-19 CNS): 2810 nM | GI50 (OVCAR-3 ovarian): 491 nM | TGI (OVCAR-3 ovarian): 1750 nM | GI50 (SW-620 colon): 188 nM | TGI (SW-620 colon): 405 nM | GI50 (SN12C renal): 175 nM | TGI (SN12C renal): 390 nM | GI50 (SR leukemia): 21.3 nM | TGI (SR leukemia): > 100 µM
